1 substance from patent US20100028463A1, “EXTRACT OF STEWARTIA KOREANA AND USE THEREOF” (priority 2006, published 2010) can be followed below.

The assay has as its system human umbilical vein endothelial cells (HUVEC). Briefly: Migration of endothelial cells, Boyden chamber method. Type of assay: cell-based. The note with it: positive control, 10 ng/mL VEGF, cultured 2 hours. As to the method:
0.1% gelatin was applied on a polycarbonate membrane (Costar, USA) for 10 minutes and dried at room temperature for 1 hour. 30 μL of human umbilical vein endothelial cells (HUVEC, 1×10^6 cells/mL) was put in a lower chamber of a trans-wells (Costar, USA), covered with the dried polycarbonate membrane, and an upper chamber was overlaid, followed by fixing by a screw. The chamber was turned over so that the cells could be attached to the membrane and cultured at 37° C. in a CO2 incubator for 2 hours.
50 μL of Stewartia koreana extract according to the present invention was added to the upper chamber and cultured for 2 hours. The polycarbonate membrane was died using the diff-quick staining agent and the migrated endothelial cells were counted through the polycarbonate membrane using a microscope (Table 1). Each dry extract powder of Stewartia koreana otained in Example were dissolved in water in an amount of 100 μg/mL. The negative control was water and the positive control was 10 ng/mL of VEGF (vascular endothelialgrowth factor, Sigma).
The polycarbonate membrane was stained with diff-quick staining agent and the number of the endothelial cells which had migrated through the polycarbonate membrane was then counted using a microscope (FIG. 1). […] The dry powder of the ethanol extract of Stewartia koreana and compound Madecassol™ were added to water in an amount of 12.5 to 100 μg/mL.

VEGF had a Migrated endothelial cells of 75 ± 0.41.
